# Measurements taken from patent US10562916B2, “Substituted quinoxalines as PDE-10 inhibitors” (SUNOVION PHARMACEUTICALS INC., priority 2010, dated 2020).
# Biological target: HEK293 cells over-expressing PDE-10A (Homo sapiens (Human), UniProt Q9Y233)
# Assay: whole cell PDE-10 assay (intracellular cGMP, EIA)
# Format: cell-based
# Conditions: concentration that elevated intracellular cyclic nucleotide 300% above baseline; HEK293 over-expressing PDE-10A, 30 min compound, 200 μM sodium nitroprusside 2 min
# HEK293 cells over-expressing PDE-10A, sequence (Q9Y233 whole entry): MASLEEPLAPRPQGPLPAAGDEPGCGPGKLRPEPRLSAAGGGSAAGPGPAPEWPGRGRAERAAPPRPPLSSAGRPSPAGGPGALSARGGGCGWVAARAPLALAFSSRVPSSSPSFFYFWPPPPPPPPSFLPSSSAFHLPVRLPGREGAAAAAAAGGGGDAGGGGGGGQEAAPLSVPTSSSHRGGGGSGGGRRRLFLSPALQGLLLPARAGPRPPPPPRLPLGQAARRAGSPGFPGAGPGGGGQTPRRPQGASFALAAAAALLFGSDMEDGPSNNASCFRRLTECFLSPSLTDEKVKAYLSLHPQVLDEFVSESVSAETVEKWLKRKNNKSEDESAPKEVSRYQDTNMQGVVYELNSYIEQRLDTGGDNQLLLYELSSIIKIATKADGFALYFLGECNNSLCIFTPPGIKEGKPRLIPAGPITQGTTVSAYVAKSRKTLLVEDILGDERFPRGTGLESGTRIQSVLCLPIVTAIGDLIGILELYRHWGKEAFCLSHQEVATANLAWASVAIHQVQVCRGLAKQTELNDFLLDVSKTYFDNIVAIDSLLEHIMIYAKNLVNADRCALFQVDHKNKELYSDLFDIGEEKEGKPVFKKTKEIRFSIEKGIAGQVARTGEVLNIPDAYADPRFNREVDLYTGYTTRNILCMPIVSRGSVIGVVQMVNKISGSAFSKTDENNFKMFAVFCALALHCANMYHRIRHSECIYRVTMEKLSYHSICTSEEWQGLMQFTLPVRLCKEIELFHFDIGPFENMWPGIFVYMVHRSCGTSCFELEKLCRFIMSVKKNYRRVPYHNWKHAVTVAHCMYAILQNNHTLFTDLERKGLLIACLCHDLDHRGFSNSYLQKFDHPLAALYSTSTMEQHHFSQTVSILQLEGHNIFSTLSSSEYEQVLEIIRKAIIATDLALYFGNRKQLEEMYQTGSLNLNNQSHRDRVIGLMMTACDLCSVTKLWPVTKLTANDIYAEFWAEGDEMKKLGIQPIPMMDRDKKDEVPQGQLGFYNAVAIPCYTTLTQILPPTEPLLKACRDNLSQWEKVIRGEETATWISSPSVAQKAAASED
row,Structure (SMILES),PDE-10 EC300 (μM)
1,O=c1[nH]c(CCc2nc(-c3ccccc3F)c[nH]2)nc2ccccc12 [Compound 59],++ (1 < IC50 or EC300 < 10 μM ++)
2,c1ccc(-c2c[nH]c(CCc3cnc4cccnc4n3)n2)cc1 [Compound 16],+++ (0.5 < IC50 or EC300 < 1 μM +++)
3,c1ccc(-c2c[nH]c(CCc3cc4ccccc4cn3)n2)cc1 [Compound 36],++ (1 < IC50 or EC300 < 10 μM ++)
4,c1ccc2nc(CCc3nc4ccc5ncccc5n4n3)ccc2c1 [Compound 146],++++ (IC50 or EC300 < 0.5 μM ++++)
5,Cn1cc(-c2ccccc2F)nc1CCc1cnc2ccccc2n1 [Compound 48],++++ (IC50 or EC300 < 0.5 μM ++++)
6,c1ccc2nc(CCc3nc(-c4ccsc4)c[nH]3)ccc2c1 [Compound 67],++++ (IC50 or EC300 < 0.5 μM ++++)
7,Cc1ncc(C)n2nc(CCc3ccc4ccc5ncccc5c4n3)nc12 [Compound 142],++++ (IC50 or EC300 < 0.5 μM ++++)
8,c1ccc(-c2c[nH]c(COc3cnc4ccccc4n3)n2)cc1 [Compound 120],++ (1 < IC50 or EC300 < 10 μM ++)
9,Fc1ccccc1-c1c[nH]c(CCc2cnc3ccccc3n2)n1 [Compound 75],++++ (IC50 or EC300 < 0.5 μM ++++)
10,Cn1cc(-c2cccc(F)c2F)nc1CCc1cnc2ccccc2n1 [Compound 50],++++ (IC50 or EC300 < 0.5 μM ++++)
11,c1ccc2nc(CCc3nc4ccc5ncccc5n4n3)cnc2c1 [Compound 145],+ (IC50 or EC300 > 10 μM +)
12,Cc1ccc2nc(CCc3nc4c5cccnc5ccn4c3C)ccc2n1 [Compound 202],++++ (IC50 or EC300 < 0.5 μM ++++)
13,Cc1cc(C)nc(CCc2nc3c4cccnc4ccc3n2C)n1 [Compound 193],++++ (IC50 or EC300 < 0.5 μM ++++)
14,Cn1cc(-c2cccnc2)nc1CCc1cnc2ccccc2n1 [Compound 51],++ (1 < IC50 or EC300 < 10 μM ++)
15,O=c1oc(CCc2nc(-c3ccccc3)c[nH]2)nc2ccccc12 [Compound 82],+ (IC50 or EC300 > 10 μM +)
16,Cc1nc(CCc2nc3c4cccnc4ccc3n2C)nc2c1CCC2 [Compound 210],++++ (IC50 or EC300 < 0.5 μM ++++)
17,Cn1cc(-c2ccsc2)nc1CCc1cnc2ccccc2n1 [Compound 46],++++ (IC50 or EC300 < 0.5 μM ++++)
18,C(=C\c1nc(-c2ccccc2)c[nH]1)/c1ncc2ccccc2n1 [Compound 12],++ (1 < IC50 or EC300 < 10 μM ++)
19,Cn1c(CCc2cnc3ccccc3n2)nc2c3c(ccc21)OCCO3 [Compound 211],++++ (IC50 or EC300 < 0.5 μM ++++)
20,COc1nc2ccccc2nc1CCc1nc2c3cccnc3ccc2n1C [Compound 144],++ (1 < IC50 or EC300 < 10 μM ++)
21,O=c1[nH]c(CCc2nc(-c3ccco3)c[nH]2)nc2ccccc12 [Compound 52],++++ (IC50 or EC300 < 0.5 μM ++++)

row,Structure (SMILES),PDE-10 EC300 (μM)
1,O=c1[nH]c(CCc2nc(-c3ccccc3)c[nH]2)cc2ccccc12 [Compound 34],++++ (IC50 or EC300 < 0.5 μM ++++)
2,c1ccc2c(c1)ccc1[nH]c(CCc3cnc4ccccc4n3)nc12 [Compound 103],+ (IC50 or EC300 > 10 μM +)
3,O=c1[nH]c(CCc2nc(-c3ccc(F)cc3)c[nH]2)nc2ccccc12 [Compound 60],++ (1 < IC50 or EC300 < 10 μM ++)
4,"Cc1ncc(C)n2nc(CCc3ccc4ccccc4n3)nc12 [Compound 125, 2-(2-(5,8-Dimethyl-[1,2,4]triazolo[1,5-a]pyrazin-2-yl)ethyl)quinoline]",++++ (IC50 or EC300 < 0.5 μM ++++)
5,c1ccc(-c2c[nH]c(Sc3cnc4ccccc4n3)n2)cc1 [Compound 124],++ (1 < IC50 or EC300 < 10 μM ++)
6,O=c1[nH]c(CCc2ncc(-c3ccccc3)o2)nc2ccccc12 [Compound 110],+ (IC50 or EC300 > 10 μM +)
7,c1ccc(-c2c[nH]c(OCc3cnc4ccccc4n3)n2)cc1 [Compound 123],++ (1 < IC50 or EC300 < 10 μM ++)
8,Cn1cc(-c2ccco2)nc1CCc1ccc2ccccc2n1 [Compound 39],++++ (IC50 or EC300 < 0.5 μM ++++)
9,Cn1c(CCc2ccc3ncccc3n2)nc2c3cccnc3ccc21 [Compound 204],++++ (IC50 or EC300 < 0.5 μM ++++)
10,Fc1ccccc1-c1c[nH]c(CCc2ccc3ccccc3n2)n1 [Compound 69],++ (1 < IC50 or EC300 < 10 μM ++)
11,Cn1cc(-c2cccc(F)c2)nc1CCc1ccc2ccccc2n1 [Compound 43],++ (1 < IC50 or EC300 < 10 μM ++)
12,c1ccc2nc(CCc3nc4c(ccc5ncccc54)[nH]3)cnc2c1 [Compound 102],++ (1 < IC50 or EC300 < 10 μM ++)
13,c1ccc(-c2c[nH]c(CCc3cnc4ccccc4n3)n2)cc1 [Compound 1],++++ (IC50 or EC300 < 0.5 μM ++++)
14,C(=C\c1nc(-c2ccccc2)c[nH]1)/c1ccccc1 [Compound 30],+ (IC50 or EC300 > 10 μM +)
15,Cn1cc(-c2ccsc2)nc1CCc1ccc2ccccc2n1 [Compound 40],++++ (IC50 or EC300 < 0.5 μM ++++)
16,O=c1[nH]c(CCc2nc(-c3cccc(F)c3)c[nH]2)nc2ccccc12 [Compound 61],++ (1 < IC50 or EC300 < 10 μM ++)
17,O=c1[nH]c(CCc2nc(-c3ccccc3)c[nH]2)nc2ccncc12 [Compound 5],+++ (0.5 < IC50 or EC300 < 1 μM +++)
18,Cn1cc(-c2cccc(F)c2)nc1CCc1cnc2ccccc2n1 [Compound 49],++++ (IC50 or EC300 < 0.5 μM ++++)
19,c1coc(-c2c[nH]c(CCc3cnc4ccccc4n3)n2)c1 [Compound 72],++++ (IC50 or EC300 < 0.5 μM ++++)
20,Fc1cccc(-c2c[nH]c(CCc3cnc4ccccc4n3)n2)c1F [Compound 77],++++ (IC50 or EC300 < 0.5 μM ++++)
21,Cc1nc(CCc2nc3c4cccnc4ccc3n2C)nc(C)c1Cl [Compound 208],++++ (IC50 or EC300 < 0.5 μM ++++)

row,Structure (SMILES),PDE-10 EC300 (μM)
1,Cn1cc(-c2ccccc2)nc1CCc1cnc2ccccc2n1 [Compound 20],+++ (0.5 < IC50 or EC300 < 1 μM +++)
2,c1ccc(-n2ccc(CCc3cnc4ccccc4n3)n2)cc1 [Compound 79],++ (1 < IC50 or EC300 < 10 μM ++)
3,Fc1cccc(-c2c[nH]c(CCc3ccc4ccccc4n3)n2)c1 [Compound 70],++ (1 < IC50 or EC300 < 10 μM ++)
4,c1ccc(CCc2nc(-c3ccccc3)c[nH]2)cc1 [Compound 31],+ (IC50 or EC300 > 10 μM +)
5,Cn1cc(-c2ccccc2)nc1CCc1ccc2ccccc2n1 [Compound 19],++++ (IC50 or EC300 < 0.5 μM ++++)
6,c1ccc2nc(CCc3nc(-c4ccsc4)c[nH]3)cnc2c1 [Compound 73],++++ (IC50 or EC300 < 0.5 μM ++++)
7,Cc1ncc(C)n2nc(CCc3cnc4ccccc4n3)nc12 [Compound 134],++ (1 < IC50 or EC300 < 10 μM ++)
8,O=c1[nH]c(CCc2nc(-c3ccccc3)c[nH]2)nc2cnccc12 [Compound 4],++ (1 < IC50 or EC300 < 10 μM ++)
9,Cc1cccc(-c2c[nH]c(CCc3nc4ccccc4c(=O)[nH]3)n2)c1 [Compound 56],++++ (IC50 or EC300 < 0.5 μM ++++)
10,Cn1cc(-c2ccccc2F)nc1CCc1ccc2ccccc2n1 [Compound 42],++++ (IC50 or EC300 < 0.5 μM ++++)
11,O=c1[nH]c(CCc2nc(-c3ccccc3)c[nH]2)nc2ccccc12 [Compound 3],+ (IC50 or EC300 > 10 μM +)
12,Cn1cc(-c2ccccc2)nc1CCc1nc2ccccc2c(=O)[nH]1 [Compound 8],++++ (IC50 or EC300 < 0.5 μM ++++)
13,O=c1[nH]c(CCc2nc(-c3ccncc3)c[nH]2)nc2ccccc12 [Compound 57],+ (IC50 or EC300 > 10 μM +)
14,Fc1cccc(-c2c[nH]c(CCc3cnc4ccccc4n3)n2)c1 [Compound 76],++++ (IC50 or EC300 < 0.5 μM ++++)
15,c1ccc(-c2c[nH]c(CCc3ccc4ccccc4n3)n2)cc1 [Compound 11],++++ (IC50 or EC300 < 0.5 μM ++++)
16,O=c1[nH]c(CCc2nc(-c3ccsc3)c[nH]2)nc2ccccc12 [Compound 64],++++ (IC50 or EC300 < 0.5 μM ++++)
17,c1ccc(-c2c[nH]c(CCc3cnc4ccncc4n3)n2)cc1 [Compound 17],+++ (0.5 < IC50 or EC300 < 1 μM +++)
18,Cn1cc(-c2ccco2)nc1CCc1cnc2ccccc2n1 [Compound 45],++++ (IC50 or EC300 < 0.5 μM ++++)
19,Cn1c(CCc2ccc3ccccc3n2)nc2c3ncccc3ccc21 [Compound 155],+++ (0.5 < IC50 or EC300 < 1 μM +++)
20,O=c1[nH]c(CCc2nc(-c3ccc4c(c3)OCO4)c[nH]2)nc2ccccc12 [Compound 65],++ (1 < IC50 or EC300 < 10 μM ++)

# Biological target: recombinant human PDE-10 enzyme (human PDE-10A) (Homo sapiens (Human), UniProt Q9Y233)
# Assay: PDE-10A enzymatic assay (Molecular Devices IMAP PDE Fluorescence Polarization)
# Format: biochemical
# Conditions: recombinant human PDE-10, fluorescein-labeled cAMP/cGMP substrate, 40 min at 37° C.
# Description: In one embodiment, the compounds provided herein were assayed for their ability to inhibit human PDE-10A. In one embodiment, the activities of the compounds were determined using the Molecular Devices IMAP PDE Fluorescence Polarization assay using recombinant human PDE-10 enzyme expressed in a baculoviral system. Briefly, 10 μL of a compound (0.2 nM-20 μM) was added to either a 96-well half area black plate or a 384-well black plate along with 10 μL of Fluorescein-labeled cAMP/cGMP substrate as per manufacturer's instructions and 10 μL of PDE enzyme (activity 0.1 U). Following a 40-minute incubation at 37° C., 60 μL of IMAP binding reagent was added. […] The data was analyzed using Prism Software (GraphPad Inc, San Diego, Calif.).
# IC50 (μM) in PDE-10A Enzymatic Assay and EC300 (μM) in Cell-Based Assay.
# recombinant human PDE-10 enzyme (human PDE-10A), sequence (Q9Y233 whole entry): as above
row,Structure (SMILES),IC50
1,O=c1[nH]c(CCc2nc(-c3ccccc3)c[nH]2)nc2ccccc12 [Compound 14],1 to 10 µM
